Consider 1 substance from patent US9078851B2, “Composition for preventing or treating a spinal cord injury” (UNIVERSITY-INDUSTRY COOPERATION GROUP OF KYUNG HEE, priority 2009, dated 2015).

Holding throughout (format): in vivo, rat
The subject of test [1] is TNF-α, IL-1β, IL-6, iNOS, IL-10 mRNA at spinal cord injury site. The experiment in a line: RT-PCR analysis of cytokine mRNA in injured spinal cord. The conditions noted are these: 5 nmol/kg tail vein. As for the experimental part:
(§1) For the present experiment, male white mice (Sprague-Dawley 240-250 g, 7 weeks, 10 mice) were under general anesthetics by an intraperitoneal injection of Ketamin (80 mg/kg, Yuhan Corporation) and Rompun (7.4 mg/kg, Bayer Korea Corporation). Laminectomy was performed at spine T9-10 level to expose a spinal cord keeping intact dura. And then, rat was put on Spinal cord dropping device (NYU); spine processes at T8 and T11 sites were fixed by using a clamp, respectively; then, a rod (diameter 2 mm, weight 10 g) was dropped from 25 mm height vertical to dorsal part of spinal cord followed by suturing injury site muscle and skin. The rat of Sham-operated control group was performed only laminectomy at same area without damaging spinal cord injury (marked by ‘sham” in figures; hereinafter, the same as above).
Substance P (marked by ‘SP’ in figures; hereinafter, the same as above) dissolved in saline of 5 nmol/kg concentration was injected through tail vein at immediately, 24 hours, and 48 hours after a spinal cord injury for experimental groups. At sham control group, same volume of saline (marked by ‘vehicle’ in figures; hereinafter, the same as above) without Substance P was injected at same time points. Operation were performed on an electric heating pad of 37° C., and then rat were transferred to cage after awake from the anesthetic. • (2) Preparation of Tissue
Substance P (5 nmol/kg in saline) or saline (the same volume without Substance P) was injected through tail vein at various time points at immediately, 1 d, 2d after operation as (1) of Example 1. At 1 hour, 6 hours, 1 day, 3 days, and 5 days, the experimental group (6 rats/group) and the control (6 rats/group) were sacrificed, respectively. After exposing a spinal cord by laminectomy, spin cord with a length of 1 cm, the injury site between T9-10 as the central, was quickly cut off, and immediately put into liquid nitrogen. Total RNA was extracted by using Trizol reagent (Invitrogen), and the cDNA was synthesized through Reverse transcription process. Then, PCR (Chromagen) was performed using primers of TNF-α IL-1β iNOS. Primer's sequences and PCR conditions were as follows.

The subject of test [2] is myelin sheath of nerve cell. The experiment in a line: Immunofluorescence staining of myelin base protein (MBP) after spinal cord injury. As for the experimental part: as §1
(§2) Substance P (marked by ‘SP’ in figures; hereinafter, the same as above) dissolved in saline of 5 nmol/kg concentration was injected through tail vein at immediately, 24 hours, and 48 hours after a spinal cord injury for experimental groups. At sham control group, same volume of saline (marked by ‘vehicle’ in figures; hereinafter, the same as above) without Substance P was injected at same time points. Operation were performed on an electric heating pad of 37° C., and then rat were transferred to cage after awake from the anesthetic. • (2) Preparation of Tissue […]

For a further test, the system named is spinal cord injury. The experiment in a line: Ethologic change test, BBB locomotor rating scale after spinal cord injury. As to the method: For the present experiment, male white mice (Sprague-Dawley 240-250 g, 7 weeks, 10 mice) were under general anesthetics by an intraperitoneal injection of Ketamin (80 mg/kg, Yuhan Corporation) and Rompun (7.4 mg/kg, Bayer Korea Corporation). Laminectomy was performed at spine T9-10 level to expose a spinal cord keeping intact dura. And then, rat was put on Spinal cord dropping device (NYU); spine processes at T8 and T11 sites were fixed by using a clamp, respectively; then, a rod (diameter 2 mm, weight 10 g) was dropped from 25 mm height vertical to dorsal part of spinal cord followed by suturing injury site muscle and skin. The rat of Sham-operated control group was performed only laminectomy at same area without damaging spinal cord injury (marked by ‘sham” in figures; hereinafter, the same as above). Substance P (marked by ‘SP’ in figures; hereinafter, the same as above) dissolved in saline of 5 nmol/kg concentration was injected through tail vein at immediately, 24 hours, and 48 hours after a spinal cord injury for experimental groups. At sham control group, same volume of saline (marked by ‘vehicle’ in figures; hereinafter, the same as above) without Substance P was injected at same time points. Operation were performed on an electric heating pad of 37° C., and then rat were transferred to cage after awake from the anesthetic. • (2) Preparation of Tissue An ethologic change test was performed as follows: an experimental animal was put to a large basin having soft and non-smooth bottom (Width 90 cm×Length 130 cm×Height 30 cm); then body's balance states and moving states of hind-leg's coxalgic pelvis, knee joint, and ankle joint were observed when freely walking; then it was converted into a score based on Basso-Bresnahan-Beattie (BBB) locomotor rating scale (Basso et al., 1995); and then four researchers performed a blind technique. Substance P or saline was injected to a tail vein of rat, respectively at immediately, 1 d, 2 d after a spinal cord injury, using the same method as (1) of Example 1. And then, for the experimental group (10 rats/group) and the control (9 rats/group), an ethologic change due to a spinal cord injury was observed and estimated for different periods, such as after injuring, 1 week, 2 weeks, 3 weeks, 4 weeks, 5 weeks, […], and 6 weeks. A mean value of scores (BBB scores) observed by four researchers was taken, and the results thereof were statistically analyzed. The statistical analysis was performed in a method of two-way ANOVA with post hoc Tukey test.

Test [3] relates to activated microglia/macrophage. Briefly: Immunofluorescence staining of ED1 at spinal cord injury site. The following applies: 5 nmol/kg tail vein at immediately, 24 h, 48 h after spinal cord injury; 5 days after operation; vs control, rostal to caudal area. As to the method:
as §1, §2

The mark [4] stands for this setting: 1 hour after spinal cord injury, vs control.

For Substance P, in test [1] (setting [4]), the “expression of IL-1β mRNA” value is on record as “slightly decreased”, the “expression of IL-6 mRNA” value is “slightly decreased”, the “expression of TNF-α mRNA” value is “slightly decreased” and the “expression of iNOS mRNA” value is recorded as “slightly decreased”. Besides, the “increase of expression of IL-10 mRNA” value in test [1] (6 hours after spinal cord injury, vs control) was “at least 17 times”. Moreover, the “expression of iNOS” value in test [1] (one day after spinal cord injury) is given as “surely decreased”. In addition, in test [1] (other times than 1 hour, between two groups), the “expressions of inflammatory cytokines (TNF-α, IL-1β, IL-6, iNOS mRNAs)” value is “do not have a difference”. The “expression of IL-10 mRNA” value in test [1] (up to 3 day after spinal cord injury, vs control) is recorded as “persist increasing level”. Further, the “inhibition of tissue lose” value in test [2] (at 2 mm rostal and caudal from the center) is reported as “at least 50%”. Also, in test [2] (tail vein injection, after spinal cord injury), the MBP-positive sheath result is “well preserved”. In the test with spinal cord injury (from 14 days, vs control), the motor skill result is reported as “meaningful improved”. Also, in the test with spinal cord injury (from about 5 weeks, vs control), the motor skill result is “meaningfully recovered and improved”. For the same substance, the “spinal cord nerve function” value in the test with spinal cord injury (from about one week after administrating, vs control) is “beginning to recover”. Further, in the test with spinal cord injury (tail vein injection at immediately, 1 d, 2 d after injury, at 6 weeks, P<0.05 vs control), the BBB score is given as 11.5±0.5. For the same substance, the “activated microglia/macrophage expressing ED1 antigen” value in test [3] was “significantly decreased”.
